Where a chain is given by its changes, count along the chain named.
What was measured:
Type in all cases: cell-based
[1] = biological target: T1, α-Gal A mutant form Y216S (Homo sapiens, UniProt P06280, Y216S); test: α-Gal A activity in lysates of transfected HEK-293 cells, Y216S
T1 construct: expressed in transfected cells; host or cells: HEK-293
T1 sequence (P06280 32-429 Y216S): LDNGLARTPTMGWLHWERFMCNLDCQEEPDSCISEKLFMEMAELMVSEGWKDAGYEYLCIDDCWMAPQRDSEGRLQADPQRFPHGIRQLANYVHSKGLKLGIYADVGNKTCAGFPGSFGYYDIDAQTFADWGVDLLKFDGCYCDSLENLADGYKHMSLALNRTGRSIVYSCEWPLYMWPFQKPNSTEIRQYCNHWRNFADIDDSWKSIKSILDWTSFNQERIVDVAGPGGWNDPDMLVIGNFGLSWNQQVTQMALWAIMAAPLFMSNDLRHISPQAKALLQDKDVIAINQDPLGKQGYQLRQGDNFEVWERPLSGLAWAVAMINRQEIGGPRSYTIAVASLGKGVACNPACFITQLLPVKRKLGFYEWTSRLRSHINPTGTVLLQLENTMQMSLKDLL
Method: (§1) Baseline and 10 μM migalastat α-Gal A activity: Differences in the α-Gal A activity between lysates incubated in the absence and presence of 10 μM migalastat were determined using a one-tailed, Mann Whitney U test; an increase at 10 μM migalastat with a p<0.05 was considered significant.
(§2) 10 μM migalastat α-Gal A activity (% WT)=(α-Gal A activity in mutant transfected cell lysates incubated with 10 μM migalastat÷α-Gal A activity in wild-type transfected cell lysates without migalastat)*100.
(§3) Absolute increase (% WT)=is the 10 μM migalastat α-Gal A activity (% WT) minus the baseline α-Gal A activity (% WT).
(§4) Relative increase is the 10 μM migalastat α-Gal A activity in mutant transfected cell lysates÷baseline α-Gal A activity in mutant transfected cell lysates incubated without migalastat.

[2] = biological target: T2, α-Gal A mutant form N228D (Homo sapiens, UniProt P06280, N228D); test: α-Gal A activity in lysates of transfected HEK-293 cells, N228D
T2 construct: expressed in transfected cells; host or cells: HEK-293
T2 sequence (P06280 32-429 N228D): T1 sequence (P06280 32-429 Y216S) with S185Y, N197D
Method: as §1, §2, §3, §4

[3] = biological target: T3, α-Gal A mutant form T194A (Homo sapiens, UniProt P06280, T194A); test: α-Gal A activity in lysates of transfected HEK-293 cells, T194A
T3 construct: expressed in transfected cells; host or cells: HEK-293
T3 sequence (P06280 32-429 T194A): T1 sequence (P06280 32-429 Y216S) with T163A, S185Y
Method: as §1, §2, §3, §4

[4] = biological target: T4, α-Gal A mutant form W204L (Homo sapiens, UniProt P06280, W204L); test: α-Gal A activity in lysates of transfected HEK-293 cells, W204L
T4 construct: expressed in transfected cells; host or cells: HEK-293
T4 sequence (P06280 32-429 W204L): T1 sequence (P06280 32-429 Y216S) with W173L, S185Y
Method: as §1, §2, §3, §4

[5] = biological target: T5, α-Gal A mutant form D155E (Homo sapiens, UniProt P06280, D155E); test: α-Gal A activity in lysates of transfected HEK-293 cells, D155E
T5 construct: expressed in transfected cells; host or cells: HEK-293
T5 sequence (P06280 32-429 D155E): T1 sequence (P06280 32-429 Y216S) with D124E, S185Y
Method: as §1, §2, §3, §4

[6] = 10 μM migalastat minus baseline
[7] = 10 μM migalastat ÷ baseline activity
[8] = HEK-293 lysates, 10 nM migalastat as printed, 5 days, mean ± SEM
[9] = HEK-293 lysates, 10 μM migalastat, 5 days, mean ± SEM

- Absolute increase (% WT) [1, 6]: 32.7 % WT
- Relative increase [1, 7]: 17.70
- 10 nM migalastat α-Gal A activity [1, 8]: 11238 ± 751 nmol/mg/h
- 10 μM migalastat α-Gal A activity (% WT) [1, 9]: 34.7 ± 1.8 % WT
- Absolute increase (% WT) [2, 6]: 48.2 % WT
- Relative increase [2, 7]: 4.12
- 10 μM migalastat α-Gal A activity [2, 9]: 25816 ± 2273 nmol/mg/h
- 10 μM migalastat α-Gal A activity (% WT) [2, 9]: 63.2 ± 5.4 % WT
- Absolute increase (% WT) [3, 6]: 19.7 % WT
- Relative increase [3, 7]: 2.75
- 10 nM migalastat α-Gal A activity [3, 8]: 10315 ± 459 nmol/mg/h
- 10 μM migalastat α-Gal A activity (% WT) [3, 9]: 30.5 ± 2.0 % WT
- Absolute increase (% WT) [4, 6]: 47.4 % WT
- Relative increase [4, 7]: 2.02
- 10 μM migalastat α-Gal A activity [4, 9]: 32649 ± 3037 nmol/mg/h
- 10 μM migalastat α-Gal A activity (% WT) [4, 9]: 84.3 ± 5.9 % WT
- Absolute increase (% WT) [5, 6]: 14.5 % WT
- Relative increase [5, 7]: 3.81
- 10 μM migalastat α-Gal A activity [5, 9]: 6619 ± 337 nmol/mg/h
- 10 μM migalastat α-Gal A activity (% WT) [5, 9]: 19.8 ± 1.0 % WT
Compound: OC[C@H]1NC[C@H](O)[C@@H](O)[C@H]1O [migalastat, (2R,3S,4R,5S)-2-(hydroxymethyl) piperdine-3,4,5-triol]

Reference: patent US12594268B2, “Methods of treating Fabry disease in patients having a mutation in the GLA gene” (Amicus Therapeutics, Inc., priority 2018, dated 2026)
